In patent US10081629B2, “Amide derivatives and pharmaceutically acceptable salts thereof, preparation method thereof and medicinal application thereof” (Shanghai Hengrui Pharmaceutical Co., Ltd., priority 2014, dated 2018):

Columns and labels:
human mPGES1 = human mPGES1 (Homo sapiens (Human), UniProt O14684); assay: Inhibition activity for human mPGES1 (enzyme assay, PGE2 HTRF); format: biochemical; conditions: membrane protein from HEK-293 F transfected with human mPGES1
Procedure: The method described here is used for determining the inhibition activity of the present compounds for human mPGES1.
• 1. PGE2 Assay kit (Cisbio, #62P2APEB) • 2. Prostaglandin H2 (Sigma, #P7867-1MG) • 3. FlexStation3 microplate reader. II. Experimental Procedure • 1. Obtaining the membrane proteins of mPGES1 enzyme
The cell density of HEK-293 F was grown to 6×10^5 per milliliter and was transferred with the plasmid containing human mPGES1 gene by transfection reagent PEI the next day. The cells were continuously cultured for 72 hours at 37° C. with shaking. After centrifuging at 1100 g for 5 minutes, the cells were harvested. After ultrasonication in an ice bath and centrifugation at 5000 g for 10 minutes, the supernatant was obtained. The supernatant was centrifuged at 100000 g for 1 hour to obtain a precipitate. The precipitate was resuspended with storage buffer containing 10% glycerinum, subpackaged and frozen rapidly under liquid nitrogen, and stored at −80° C. • 2. mPGES1 enzyme assay
mPGES1 was diluted with assay buffer and added into plate at 49 μL/well supplemented with 1 μL of compound (the final concentration of each compound at seven gradient concentrations was 10000 nM, 1000 nM, 100 nM, 10 nM, 1 nM, 0.1 nM and 0.01 nM). […] Then, each well was added with 53.8 μL of 6 mg/mL SnCl2 to quench the reaction. The sample was diluted with dilute buffer at 1:400. 10 μl of diluted sample, 5 μL PGE2-d2 and 5 μL anti-PGE2 Cryptate were added to a black 384-well plate, and incubated at 4° C. overnight. HTRF was determined using Flexstation, and the IC50 of the compounds was obtained by data processing software.
The inhibition activity of the present compounds on mPGES1 was tested by the assay described above.

[1] = tested on: secretion of PGE2 by A549 cells stimulated with IL-1β; assay: Inhibition of the secretion of PGE2 by A549 cells stimulated with IL-1β; format: cell-based; conditions: IL-1β 0.2 ng/mL, 24 hours
From the text: The method described here was used for determining the inhibition activity of the present compounds on the secretion of PGE2 by A549 cells stimulated with IL-1β.
• 1. PGE2 Assay kit (Cisbio, #62P2APEB) • 2. IL-1β (Peprotech, # AF-200-01B) • 3. Cell line: A549 (ATCC: CCL-185) • 4. FlexStation3 microplate reader. II. Experimental Procedure
On the first day, A549 cells were inoculated in a 96-well plate at 40000/well. On the second day, the culture medium in the 96-well plate was removed and then added with 90 μL of compound diluted with culture medium (the concentration of each compound at seven gradient concentrations was 11111 nM, […], 1.11 nM, 0.11 nM and 0.011 nM). The cells were incubated for 30 minutes at 37° C. in an incubator, and then added with IL-1β to a final concentration of 0.2 ng/mL. Then, the cells were incubated for another 24 hours at 37° C. On the third day, 10 μl of supernatant, 5 μL of PGE2-d2 and 5 μL of anti-PGE2 Cryptate were added into a black 384-well plate, and then incubated at 4° C. overnight. HTRF was determined using Flexstation, and the IC50 of the compounds was obtained by data processing software.
The inhibition activity of the present compounds on the secretion of PGE2 by A549 cells stimulated with IL-1β was determined by the assay described above.

Chain of human mPGES1 (O14684 whole entry): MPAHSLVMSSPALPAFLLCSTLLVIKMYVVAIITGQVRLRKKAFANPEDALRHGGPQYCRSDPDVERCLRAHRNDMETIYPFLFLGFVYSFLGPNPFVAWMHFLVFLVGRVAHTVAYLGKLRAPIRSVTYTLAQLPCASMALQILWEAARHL

| Structure (SMILES) | IC50 (human mPGES1) [nM] | IC50 ([1]; Homo sapiens, A549) [nM] | IC50 [1] [nM] |
| --- | --- | --- | --- |
| CCn1c(-c2ccc(C(F)(F)F)cc2)cc2cc(NC(=O)c3cc(CNC(=O)C(C)C)cnc3C(F)F)ccc21 [Example 1, 2-(difluoromethyl)-N-(1-ethyl-2-(4-(trifluoromethyl)phenyl)-1H-indol-5-yl)-5-((2-methylpropanoylamino)methyl)nicotinamide] | 8.26 | 3.55 | – |
| CC(C)(F)C(=O)NCc1cnc(C(F)F)c(C(=O)Nc2ccc3c(c2)C(=O)N(c2cccc(C(F)(F)F)c2)C3)c1 [Example 59, 2-(Difluoromethyl)-5-(((2-fluoro-2-methyl-propanoyl)amino)methyl)-N-(3-oxo-2-(3-(trifluoromethyl)phenyl)isoindolin-5-yl)nicotinamide] | 1.18 | 20.5 | – |
| CC(C)C(=O)NCc1cnc(C(F)F)c(C(=O)Nc2ccc3c(c2)cc(-c2ccc(Cl)cc2)n3C)c1 [Example 13, N-(2-(4-chlorophenyl)-1-methyl-1H-indol-5-yl)-2-(difluoromethyl)-5-((2-methylpropanoylamino)methyl)nicotinamide] | 7.43 | 16.7 | – |
| CCn1c(-c2ccc(Cl)cc2)cc2cc(NC(=O)c3cc(CNC(=O)C(C)C)cnc3C(F)F)ccc21 [Example 10, 2-(Difluoromethyl)-N-(1-ethyl-2-(4-chlorophenyl)-1H-indol-5-yl)-5-((2-methylpropanoylamino)methyl)nicotinamide] | 11.2 | 12.3 | – |
| CCn1c(-c2ccc(F)cc2)cc2cc(NC(=O)c3cc(CNC(=O)C(C)C)cnc3C(F)F)ccc21 [Example 5, 2-(Difluoromethyl)-N-(1-ethyl-2-(4-fluorophenyl)-1H-indol-5-yl)-5-((2-methylpropanoylamino)methyl)nicotinamide] | 22 | 12.4 | – |
| Cn1c(-c2ccc(Cl)cc2)cc2cc(NC(=O)c3cc(CNC(=O)C4(C(F)(F)F)CC4)cnc3C(F)F)ccc21 [Example 21, N-(2-(4-Chlorophenyl)-1-methyl-1H-indol-5-yl)-2-(difluoromethyl)-5-(((1-(trifluoromethyl)cyclopropanecarbonyl)amino)methyl)nicotinamide] | 8.24 | 57.4 | – |
| CC(C)C(=O)NCc1cnc(C(F)F)c(C(=O)Nc2ccc3nc(-c4ccc(C(F)(F)F)cc4)sc3c2)c1 [Example 54, 2-(Difluoromethyl)-5-((2-methylpropanoylamino)methyl)-N-(2-(4-(trifluoromethyl)phenyl)benzo[d]thiazol-6-yl)nicotinamide] | 47.1 | 58.5 | – |
| CC(C)C(=O)NCc1cnc(C(F)F)c(C(=O)Nc2ccc3oc(-c4ccc(C(F)(F)F)cc4)nc3c2)c1 [Example 38, 2-(Difluoromethyl)-5-((2-methylpropanoylamino)methyl)-N-(2-(4-(trifluoromethyl)phenyl)benzo[d]oxazol-5-yl)nicotinamide] | 5.43 | 42.9 | – |
| Cn1c(-c2ccc(C(F)(F)F)cc2)cc2cc(NC(=O)c3cc(CNC(=O)C(C)(C)F)cnc3C(F)F)ccc21 [Example 15, 2-(Difluoromethyl)-5-(((2-fluoro-2-methyl-propanoyl)amino)methyl)-N-(1-methyl-2-(4-(trifluoromethyl)phenyl)-1H-indol-5-yl)nicotinamide] | 23.4 | 33.3 | – |
| Cn1c(-c2ccc(Cl)cc2)cc2cc(NC(=O)c3cc(CNC(=O)C(C)(C)F)cnc3C(F)F)ccc21 [Example 18, N-(2-(4-Chlorophenyl)-1-methyl-1H-indol-5-yl)-2-(difluoromethyl)-5-(((2-fluoro-2-methyl-propanoyl)amino)methyl)nicotinamide] | 5.15 | – | 17.2 |
| CC(C)C(=O)NCc1cnc(C(F)F)c(C(=O)Nc2ccc3c(c2)cc(-c2ccc(C(F)(F)F)cc2)n3C)c1 [Example 9, 2-(difluoromethyl)-N-(1-methyl-2-(4-(trifluoromethyl)phenyl)-1H-indol-5-yl)5-((2-methylpropanoylamino)methyl)-nicotinamide] | 15.6 | 11.8 | – |
| Cn1c(-c2ccc(Cl)cc2)nc2cc(NC(=O)c3cc(CNC(=O)C(C)(C)C)ccc3Cl)ccc21 [Example 55, 2-Chloro-N-(2-(4-chlorophenyl)-1-methyl-1H-benzo[d]imidazol-5-yl)-5-((2,2-dimethylpropanoylamino)methyl)benzamide] | 29.8 | – | – |
| CCn1c(-c2ccc(F)cc2)cc2cc(NC(=O)c3cc(CNC(=O)C(C)(C)C)ccc3Cl)cnc21 [Example 4, 2-Chloro-N-(1-ethyl-2-(4-fluorophenyl)-1H-pyrrolo[2,3-b]pyridin-5-yl)-5-((2,2-dimethylpropanoylamino)methyl)-benzamide] | – | 26.9 | – |
| CC(C)(F)C(=O)NCc1cnc(C(F)F)c(C(=O)Nc2ccc3oc(-c4ccc(C(F)(F)F)cc4)nc3c2)c1 [Example 23, 2-(Difluoromethyl)-5-(((2-fluoro-2-methyl-propanoyl)amino)methyl)-N-(2-(4-(trifluoromethyl)phenyl)benzo[d]oxazol-5-yl)nicotinamide] | 4.73 | 49 | – |
| CC1(C(=O)NCc2ccc(Cl)c(C(=O)Nc3ccc4oc(-c5ccc(C(F)(F)F)cc5)nc4c3)c2)CC1 [Example 41, 2-Chloro-5-(((1-methylcyclopropanecarbonyl)amino)methyl)-N-(2-(4-(trifluoromethyl)phenyl)benzo[d]oxazol-5-yl)benzamide] | 25.6 | – | – |
| CC(C)(F)C(=O)NCc1cnc(C(F)F)c(C(=O)Nc2ccc3oc(-c4cccc(C(F)(F)F)c4)nc3c2)c1 [Example 56, 2-(Difluoromethyl)-5-(((2-fluoro-2-methyl-propanoyl)amino)methyl)-N-(2-(3-(trifluoromethyl)phenyl)benzo[d]oxazol-5-yl)nicotinamide] | 7.74 | 27.5 | – |
| CCn1c(-c2ccc(Cl)cc2)nc2cc(NC(=O)c3cc(CNC(=O)C(C)(C)C)ccc3Cl)ccc21 [Example 52, 2-Chloro-N-(2-(4-chlorophenyl)-1-ethyl-1H-benzo[d]imidazol-5-yl)-5-((2,2-dimethylpropanoylamino)methyl)benzamide] | – | 55.2 | – |
| CCn1c(-c2ccc(F)cc2)cc2cc(NC(=O)c3cc(CNC(=O)C(C)(C)C)ccc3Br)ccc21 [Example 7, 2-Bromo-N-(1-ethyl-2-(4-fluorophenyl)-1H-indol-5-yl)5-((2,2-dimethylpropanoylamino)methyl)-benzamide] | – | 10.4 | – |
| CC(C)(F)C(=O)NCc1cnc(C(F)F)c(C(=O)Nc2ccc3c(c2)CN(c2cccc(C(F)(F)F)c2)C3)c1 [Example 49, 2-(Difluoromethyl)-5-(((2-fluoro-2-methyl-propanoyl)amino)methyl)-N-(2-(3-(trifluoromethyl)phenyl)isoindolin-5-yl)nicotinamide] | 8.29 | 24 | – |
| CC(C)C(=O)NCc1cnc(C(F)F)c(C(=O)Nc2ccc3oc(-c4ccc(C(F)(F)F)cc4)cc3c2)c1 [Example 39, 2-(Difluoromethyl)-5-((2-methylpropanoylamino)methyl)-N-(2-(4-(trifluoromethyl)phenyl)benzofuran-5-yl)nicotinamide] | 3.68 | 30.5 | – |
| CCn1cc(-c2ccc(F)cc2)c2cc(NC(=O)c3cc(CNC(=O)C(C)(C)C)ccc3Br)ccc21 [Example 6, 2-Bromo-N-(1-ethyl-3-(4-fluorophenyl)-1H-indol-5-yl)-5-((2,2-dimethylpropanoylamino)methyl)-benzamide] | – | 68.1 | – |
| CCn1c(-c2ccc(Cl)cc2)cc2cc(NC(=O)c3cc(CNC(=O)C4(C)CC4)cnc3C(F)F)ccc21 [Example 42, N-(2-(4-Chlorophenyl)-1-ethyl-1H-indol-5-yl)-2-(difluoromethyl)-5-(((1-methylcyclopropanecarbonyl)amino)methyl)nicotinamide] | 7.21 | – | – |
